The values below come from article PMC8098682 (Chemical Science, 2021).

This assay has as its target T1, isocitrate lyase (ICL) (Salmonella enterica, UniProt P51066).
T1 sequence (P51066 1-434): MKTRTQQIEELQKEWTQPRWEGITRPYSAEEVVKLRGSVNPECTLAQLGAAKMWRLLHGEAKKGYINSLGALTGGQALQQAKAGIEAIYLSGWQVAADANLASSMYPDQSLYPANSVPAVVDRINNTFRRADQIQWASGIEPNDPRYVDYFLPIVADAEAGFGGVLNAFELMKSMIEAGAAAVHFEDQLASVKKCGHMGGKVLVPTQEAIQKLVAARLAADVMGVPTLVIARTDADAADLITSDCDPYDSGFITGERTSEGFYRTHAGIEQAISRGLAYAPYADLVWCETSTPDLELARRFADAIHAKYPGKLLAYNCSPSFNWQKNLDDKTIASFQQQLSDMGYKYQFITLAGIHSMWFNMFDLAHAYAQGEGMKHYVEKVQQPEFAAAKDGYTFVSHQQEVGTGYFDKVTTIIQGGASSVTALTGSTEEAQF
Description: enzyme activity assay of purified ICL. In kind it is biochemical.

The structures appear in SMILES notation. pIC50: −log10 of the molar value.

On to `C=C(CC(=O)O)C(=O)O` [ITA, itaconate], for which the pIC50 (in general, −log10 of the IC50, conventionally taken in molar units) was approximately 2.59.
